Reference: patent US8304408B2, “Wnt signaling inhibitors, and methods for making and using them” (The Regents of the University of California, priority 2007, dated 2012)
≈ marks a conversion by molar mass, not a printed value.

What was measured:
[1] = tested on: TCF/LEF dependent reporter gene (wnt/beta-catenin signaling) in HEK293 cells; assay: Top-flash assay: HEK293 cells transfected with a TCF/LEF dependent reporter gene; format: cell-based; settings: for inhibition of wnt-signaling path in HEK293 reporter assay: even at concentrations of 50 uM
Protocol: FIG. 2 in graphic form illustrates data comparing inhibition of beta-catenin in a “Top-flash assay.” In this assay HEK 293 cells were transfected with a TCF/LEF dependent reporter gene and expression plasmid for Dsh. After overnight incubation, the cells were treated with the indicated amounts of debromohymenialdesine (“MC-001”, or dBHD, or dbHD), which is compound I in FIG. 1, analog II and III, or vehicle alone, after which the reporter gene activity was measured. All cells were also transfected with a reporter gene control for testing the transfection efficiency. In FIG. 2, the first pair of bars (to the left, closest to the y, or “fold induction”, axis) is DMSO, then moving right, the second pair of bars is 5 μM debromohymenialdesine, or dbHD (compound I of FIG. 1), then 10 μM dbHD, then 20 μM dbHD, then 50 μM compound II of FIG. 1, then 50 μM compound III of FIG. 1.
A dose response curve for debromohymenialdesine, or “MC-001”, or dbHD (or dBHD), (compound I of FIG. 1) from the HEK293 cell line assay is shown in FIG. 3. The curve is well behaved showing a relatively steep sigmoidal inhibition-concentration profile with an IC50 value of 2 uM.

[2] = tested on: chronic myelogenous leukemia stem cell (CML HSC); assay: Replating efficiency (self-renewal) of CML hematopoietic stem cells; format: cell-based; settings: for self-renewal / replating efficiency of leukemia stem cells: 2 uM drug concentration; for inhibition of CML HSC replating: replating efficiency after day 10 colony replating in methylcellulose
Protocol: (§1) On day 10, individual colonies were plucked and replicated in new methylcellulose and the replating efficiency was determined.

[3] = tested on: GMP from advanced phase CML; assay: Replating efficiency of CML GMP; format: cell-based; settings: replating efficiency after day 10 colony replating in methylcellulose
Protocol: as §1

normal HSC = assay: Replating of normal HSC; format: cell-based; settings: at doses that inhibited CML HSC and GMP
Protocol: as §1

BALB/C mice = assay: Toxicity tests in mice; format: in vivo; settings: for toxic / adverse effects in mice: doses up to 100 mg/kg
Solubility in water = format: physicochemical
[4] = log P (partition coefficient); format: physicochemical
Storage stability = format: physicochemical; settings: at RT

Question: For `NC1=NC(=O)/C(=C2\CCNC(=O)c3[nH]c(Br)cc32)N1` [Hymenialdesine, hymenialdesine, reference compound], which “inhibition of wnt-signaling path in HEK293 reporter assay” value (“inhibition of wnt-signaling path” below) [1] is on record?
Answer: did not inhibit

Question: What does the source list for `NC1=NC(=O)/C(=C2\CCNC(=O)c3[nH]ccc32)N1` [debromohymenialdesine, (4Z)-4-(2-amino-5-oxo-3,5-dihydro-4H-imidazol-4-ylidene)-4,5,6,7-tetrahy-dropyrrolo(2,3-c)azepin-8(1H)-one]?
Answer: inhibition of wnt-signaling in HEK293 cells transfected with a TCF/LEF dependent reporter gene [1]: inhibited; IC50 ([1]; Homo sapiens, HEK293 cells, TCF/LEF dependent reporter gene, read-out: IC50 from dose response curve, HEK293 cell line assay): 2000 nM; activity of synthetically obtained compound versus natural product ([1]; compound made by total synthesis, cell based reporter system): comparable to the natural product; self-renewal / replating efficiency of leukemia stem cells [2]: completely abrogated; self-renewal / replating efficiency of leukemia stem cells ([2]; listed as MC-001): completely abrogates; inhibition of CML HSC replating [2]: inhibited; inhibition of CML GMP replating [3]: inhibited; effect on normal HSC replating (normal HSC): spared; toxic / adverse effects in mice (BALB/C mice; listed as MC-001): no adverse affects; toxic / adverse effects in mice (BALB/C mice; listed as dBHD): no toxic effects; tolerability in mice (BALB/C mice; mouse, in vivo): well tolerated; solubility (Solubility in water): 22 µg/mL (≈ 89.7 µM); logP [4]: -0.58; Storage stability (Storage stability): several months

Question: Which “inhibition of wnt-signaling path” value [1] does the source give for `NC1=N[C@]23CCCN2C(=O)c2cc(Br)c(Br)n2[C@@H]3N1` [dibromophakelin, reference compound] here?
Answer: did not inhibit

Question: For `c1ccc2nc3ccccc3c-2nc1` [indoloazepine, reference compound], which “inhibition of wnt-signaling path” value [1] is on record?
Answer: did not inhibit

B1: Recombinant Dkk1: recombinant Dkk1, a Wnt inhibitor used as comparator (protein, UniProt O94907 32-266, looked up)
Dickkopf-related protein 1: TLNSVLNSNAIKNLPPPLGGAAGHPGSAVSAAPGILYPGGNKYQTIDNYQPYPCAEDEECGTDEYCASPTRGGDAGVQICLACRKRRKRCMRHAMCCPGNYCKNGICVSSDQNHFRGEIEETITESFGNDHSTLDGYSRRTTLSSKMYHTKGQEGSVCLRSSDCASGLCCARHFWSKICKPVLKEGQVCTKHRRKGSHGLEIFQRCYCGEGLSCRIQKDHHQASNSSRLHTCQRH
Question: For B1, which “inhibition of CML HSC replating” value [2] is on record?
Answer: did not inhibit
